One molecule from US8226943B2, “Antibodies to notch receptors” (OncoMed Pharmaceuticals, Inc., priority 2008, dated 2012) can be followed below.

The subject of one assay is PE13 breast tumors. As to the kind of experiment: Microarray analysis of PE13 breast tumors treated with taxol or 59R1 plus taxol. The class given is in vivo, mice. Conditions: PE13, Taxol vs. control. As for the experimental part:
In addition to investigating the effects of 59R1 in tumors and the effect on CSC frequency, gene changes were studied following 59R1 treatment in combination with taxol. The experiment was performed in PE13 breast tumors where a decrease in CSC frequency after treatment with 59R1 alone or 59R1 plus taxol treatment had previously been observed (and described herein). Microarray analysis was performed on tumors from the same experiment where limiting dilution analyses of PE13 were carried out for CSC quantification (FIG. 19). Animals bearing PE13 breast tumors were treated three weeks with 59R1 plus taxol, control and taxol prior to harvesting for microarray analysis. Mean differential expression values for taxol vs. control and 59R1 plus taxol vs. taxol treated animals (3 animals per group) were calculated.

The test system of the next assay is B51 breast tumors. Kind of assay: Limiting dilution assay of cancer stem cell frequency, B51 breast tumors. The class given is in vivo, NOD-SCID mice. The conditions noted are these: B51, paclitaxel. The text has this:
Limiting dilution assays (LDAs) can be used to assess the effect of a Notch-binding agent on solid tumor cancer stem cells and on the tumorigenicity of a tumor comprising the cancer stem cells. The assays can be sued to determine the frequency of cancer stem cells in tumors from animals treated with the Notch-binding agent or other agent and to compare that frequency to the frequency of cancer stem cells in tumors from control animals.
An LDA was used to assess the effect on the tumorigenicity of the B51 breast tumors that were treated with the combination of control antibody (1B711) plus paclitaxel (Taxol) or treated with the combination of 59R1 and paclitaxel, as described above in Example 7. In addition, the effect of treatment of B51 breast tumors with the control antibody alone or 59R1 alone was also determined by LDA. The doses of antibodies and paclitaxel and the schedule of dosing for the control antibody group and the 59R1 group were the same as described in Example 7, above for the other two treatment groups. After three doses of antibodies and/or paclitaxel, tumors were harvested, processed and dissociated into single cells. The human tumor cells were isolated from the xenograft tumor cells by incubation with biotinylated mouse antibodies (α-mouse CD45-biotin1:200 dilution and rat α-mouse H2 Kd-biotin1:100 dilution, BioLegend, San Diego, Calif.) on ice for 30 min, followed by addition of streptavidin-labeled magnetic beads and removal of the mouse cells with the aid of a magnet. The human cells in the suspension were harvested and counted.
A serial titration of cells (30, 90, 270, and 810 cells) from each of the four treatment groups was injected in a 1:1 (v/v) mixture of FACS buffer and Matrigel into a new set of NOD-SCID mice (n=10/group). Tumors were allowed to grow for 72 days. The percentage of mice with detectable tumors was determined in all groups. The cancer stem cell frequency was then calculated using L-Calc™ software (StemCell Technologies Inc.; downloadable from www.stemcell.com/search/default.asp).

As to `CC(=O)O[C@H]1C(=O)[C@@]2(C)[C@H]([C@H](OC(=O)c3ccccc3)[C@]3(O)C[C@H](OC(=O)[C@H](O)[C@@H](NC(=O)c4ccccc4)c4ccccc4)C(C)=C1C3(C)C)[C@]1(OC(C)=O)CO[C@@H]1C[C@@H]2O` [Taxol, paclitaxel, reference compound], in the assay with PE13 breast tumors, the “Fold BMPR1B” value amounted to 10.2, the “Fold BNIP3” value is given as −2.1, the “Fold EGLN3” value is −21.1 and the “Fold HSPB6” value was determined as 13.4. In the assay with PE13 breast tumors, the “Fold ITGAM” value was 2.2, the “Fold LHX8” value was found to be 4.6, the “Fold NDRG1” value is on record as −9.0 and the “Fold RARRES1” value was determined as 6.4. In addition, in the assay on PE13 breast tumors, the “Fold RARRES3” value turned out to be 2.6, the “Fold RBP2” value is on record as 4.8 and the “Fold XAF1” value is reported as 10.6. In addition, the “increase of frequency of cancer stem cells relative to the control” value with B51 breast tumors is on record as “more than two-fold”.
